Patent US11339372B2, “Serum-free medium inducing differentiation of umbilical cord mesenchymal stem cell into insulin-secretion-like cell and preparation method and use thereof” (SCLNOW BIOTECHNOLOGY CO., LTD, priority 2016, dated 2022)

Test system: Human umbilical cord mesenchymal stem cells
Test: Screening for the content of conophylline in the medium: differentiation induction, cell cluster morphology
Type: cell-based
Procedure: Media to be tested: 89 parts by volume of DMEM (High Glucose, with 4.5 g/L glucose), 5 parts by volume of serum replacement (SR), 2 parts by volume of B27 (50×), 1 part by volume of ITS, 1 part by volume of non-essential amino acids (NEAA), 1 part by volume of N-2 (100×), and heparin in a final concentration of 1 μg/ml, 10 mmol/L nicotinamide, and recombinant human basic fibroblast growth factor (b-FGF), epidermal growth factor (EGF), hepatocyte growth factor (HGF) and pentagastrin each in a final concentration of 10 ng/ml, and conophylline with a concentration of 1, 10, 50, 100, 200, and 300 ng/ml respectively.
Human umbilical cord mesenchymal stem cells were induced to differentiate through being cultured in the above media comprising different concentrations of conophylline respectively.

Compound: CC[C@@]12CC(C(=O)OC)=C3Nc4cc5c(cc4[C@@]34CCN(C[C@H]3O[C@H]31)[C@@H]24)[C@@H]1[C@H](O5)[C@@H](O)[C@@]2(CC)CC(C(=O)OC)=C3Nc4c(cc(O)c(OC)c4OC)[C@@]34CCN1[C@@H]24 [conophylline]
- state of cell clusters (medium with 1 ng/ml conophylline): the maturity of the cell clusters was insufficient
- state of cell clusters (medium with 10 ng/ml conophylline): the maturity of the cell clusters was insufficient
- state of cell clusters (medium with 50 ng/ml conophylline): cell clusters were compact and grew gradually
- state of cell clusters (medium with 100 ng/ml conophylline): cell clusters were compact and grew gradually
- state of cell clusters (medium with 200 ng/ml conophylline): cell clusters were compact and grew gradually
- state of cell clusters (medium with 300 ng/ml conophylline): the differentiated cells had undergone an undirected differentiation
